# Test results reported in US6605297B2, “Substances having antiobese and visceral fat-reducing functions and utilization thereof” (Janiftec, Inc., priority 1998, dated 2003).
# Columns and labels:
# [1] = 7-week feeding study in rats: body weight, feed ingested, symptoms; assay type: in vivo, Sprague-Dawley male rats; settings: Example 3; 0.5% in feed plus 8.5% lard, rats 7 weeks
# Method: (§1) After acclimation for 1 week on basic feed (F-2, Funabashi Farms Co., Ltd.) using 7-week-old Sprague-Dawley male rats, 7 rats per group were placed in the following 3 groups so that average body weight of each group would be the same and reared for 7 weeks. Rearing environment was adjusted to a temperature of 22 to 24° C. and humidity of 50 to 60%, with 12 hours of light and dark each (light time: 8:00 to 20:00, dark time: 20:00 to 8:00). Feed was supplied in restricted amounts and body weight was determined each week.
# (§2) The components, including proteins, sugars, etc., were the same and the lipids were adjusted to 10% for each group. […]
# (§3) After being reared for 7 weeks, the laboratory animals were fasted for 20 hours. […] Then mesenteric fat, perinephric fat, peritesticular fat, and interscapular brown fat were recovered and weighed and the brown fat was submitted to determinations of the amount of UCP. The plasma was obtained from blood by conventional methods and serum triglycerides, cholesterol, and phospholipid concentrations were determined. The amount of UCP was determined by the following method.
# With the exception that 8.5% lard was added to 0.5% starting DHA ethyl ester and served as the control group, and 8.5% lard was added to 0.5% coupled DHA ethyl ester and served as the coupled DHA ethyl group, the feed was in accordance with Example 1. […]
# [2] = tested on: mesenteric fat, perinephric fat, peritesticular fat, interscapular brown fat; test: 7-week feeding study in rats: weight of mesenteric, perinephric, peritesticular and interscapular brown fat; assay type: in vivo, Sprague-Dawley male rats; settings: Example 3; 0.5% in feed plus 8.5% lard, rats 7 weeks
# Method: as §1, §2, §3
# Then the mesenteric fat, perinephric fat, peritesticular fat, and interscapular brown fat were collected and weight was determined, and the brown fat was submitted to determinations of the amount of UCP.
# UCP = test: Amount of UCP in interscapular BAT mitochondria fraction by western blotting; assay type: in vivo, rat; settings: Example 3; 0.5% in feed, rats 7 weeks; relative value, control group = 100
# Method: as §3
# Interscapular BAT extracted from rats was homogenized with 200 mM sucrose (comprising 10 mM Tris-HCl at pH of 7.5; 2 mM EDTA), centrifuged for 5 minutes at 3,100 rpm and 4° C. using a centrifugator on a cold table, and the supernatent thereof was further centrifuged for 10 minutes at 12,000 rpm and 4° C. The precipitate thus obtained (mitochondria fraction) was served as the sample.
# Polyacrylamide gel electrophoresis was performed with 11% separated gel, and 50 μg sample protein were submitted to analysis from each lane. As the electrophoresis conditions, migration for 10 minutes at 100 V and then for 1 hour at 200 V were adopted. […] After rinsing, the UCP band was detected on X-ray film with a chemiluminescence method detection reagent (Dupont). The darkness of the band on the film was read with a scanner and digitized by a computer. […]
compound,measurement,setting,value
"CC/C=C\C/C=C\C/C=C\C/C=C\C/C=C\C/C=C\CCC(=O)OCC [Control group, DHA ethyl ester]",Body weight,[1],515.8 ± 29 b g
same,Brown fat per body weight,[2],0.073 ± 0.015%
same,Mesenteric fat per body weight,[2],1.01 ± 0.20 b %
same,Total intra-abdominal fat per body weight,[2],5.29 ± 0.93 b %
same,UCP,UCP,100 ± 8
